Reference: the NIST ThermoML archive (doi:10.1016/j.jct.2017.11.007)

Test: mn = molality of the nth substance listed, in mol/kg
Settings: 74.66 kPa, Liquid; for mass density: Vibrating tube method; for speed of sound: Frequency=3 MHz, Single path-length method

Cc1ccnc([N-]S(=O)(=O)c2ccc(N)cc2)n1.[Na+] + O
Settings	mass density, 293.15 K [kg/m3]	mass density, 298.15 K [kg/m3]	mass density, 303.15 K [kg/m3]	mass density, 308.15 K [kg/m3]	speed of sound, 298.15 K [m/s]	speed of sound, 303.15 K [m/s]	speed of sound, 308.15 K [m/s]
m1 = 0.005	998.778	997.615	996.212	994.593	1497.8	1510	1520.6
m1 = 0.008	999.118	997.95	996.544	994.922	1498.2	1510.5	1521.1
m1 = 0.01	999.342	998.172	996.764	995.14	1498.5	1510.8	1521.4
m1 = 0.01486	999.886	998.708	997.296	995.663	1499.3	1511.6	1522.1
m1 = 0.02002	1000.47	999.286	997.863	996.227	1500	1512.3	1522.8
m1 = 0.025	1001.03	999.841	998.416	996.774	1500.9	1513.1	1523.5
m1 = 0.03001	1001.59	1000.39	998.961	997.316	1501.7	1513.8	1524.2
m1 = 0.035	1002.15	1000.95	999.509	997.858	1502.5	1514.6	1524.9
m1 = 0.04002	1002.71	1001.5	1000.06	998.402	1503.3	1515.3	1525.7
m1 = 0.04499	1003.27	1002.05	1000.61	998.941	1504.1	1516.1	1526.3
m1 = 0.05	1003.84	1002.61	1001.16	999.494	1504.8	1516.8	1527.1
m1 = 0.05501	1004.4	1003.17	1001.71	1000.03	1505.7	1517.6	1527.8
m1 = 0.05998	1004.96	1003.73	1002.26	1000.58	1506.5	1518.3	1528.4
